Here are results for 13 compounds from PubChem BioAssay AID248 (DTP/NCI, 2004).

Several values for one entry are separate records, joined by “and”; a condition that tells them apart may be missing. Equal values may be shown once. Toxic doses and inconclusive results are not listed.

This assay relates to L1210 leukemia ip in BDF1 mice, survival T/C. Briefly: NCI In Vivo Anticancer Drug Screen. Data for tumor model L1210 Leukemia (intraperitoneal) in B6D2F1 (BDF1) mice. The following applies: endpoint: mean survival time, higher = longer survival. An outline of the steps:
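Each compound was tested against a transplantable tumor grown in mice. The endpoint was survival, with treated animals benchmarked against vehicle controls as a simple ratio.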

Where [1] appears, read: dose: 25.0 mg/kg/injection, schedule: Q01DX009 (ip), vehicle: saline.
The mark [2] stands for this setting: dose: 25.0 mg/kg/injection, schedule: Q04DX003 (ip), vehicle: saline.
Where [3] appears, read: dose: 50.0 mg/kg/injection, schedule: Q01DX009 (ip), vehicle: saline.
The mark [4] stands for this setting: dose: 50.0 mg/kg/injection, schedule: Q04DX003 (ip), vehicle: saline.
The mark [5] stands for this setting: dose: 50.0 mg/kg/injection, schedule: Q01DX009 (ip), vehicle: Klucel (hydroxypropylcellulose) (HPC).
Setting [6] is: dose: 100.0 mg/kg/injection, schedule: Q04DX003 (ip), vehicle: Klucel (hydroxypropylcellulose) (HPC).
[7] abbreviates: dose: 200.0 mg/kg/injection, schedule: Q04DX003 (ip), vehicle: Klucel (hydroxypropylcellulose) (HPC).
[8] abbreviates: dose: 400.0 mg/kg/injection, schedule: Q04DX003 (ip), vehicle: Klucel (hydroxypropylcellulose) (HPC).

For `NC(N)=NCCCC(NC(=O)c1ccccc1)C(=O)O` (stereo not given), the T/C (dose: 100.0 mg/kg/injection, schedule: Q01DX001 (ip), vehicle: other) is 104 % of control; the T/C (dose: 100.0 mg/kg/injection, schedule: Q01DX009 (ip), vehicle: other) is 101 % of control; the T/C (dose: 100.0 mg/kg/injection, schedule: Q04DX003 (ip), vehicle: other) was 93 % of control; the T/C (dose: 200.0 mg/kg/injection, schedule: Q01DX001 (ip), vehicle: other) was 100 % of control; the T/C (dose: 200.0 mg/kg/injection, schedule: Q01DX009 (ip), vehicle: other) was 107 % of control; the T/C (dose: 200.0 mg/kg/injection, schedule: Q04DX003 (ip), vehicle: other) was 90 % of control. For the same compound, the T/C (dose: 400.0 mg/kg/injection, schedule: Q01DX001 (ip), vehicle: other) is 100 % of control; the T/C (dose: 400.0 mg/kg/injection, schedule: Q01DX009 (ip), vehicle: other) is 100 % of control; the T/C (dose: 400.0 mg/kg/injection, schedule: Q04DX003 (ip), vehicle: other) was 96 % of control.
As to `CC(C)NNC(=O)C(C)O` (stereo not given), the T/C is 93 % of control under setting [1]; 109 % of control under setting [2]; 90 % of control under setting [3]; 96 % of control under setting [4]; 97 % of control (dose: 100.0 mg/kg/injection, schedule: Q01DX009 (ip), vehicle: saline); 93 % of control (dose: 100.0 mg/kg/injection, schedule: Q04DX003 (ip), vehicle: saline). Besides, the T/C is, setting by setting: (dose: 200.0 mg/kg/injection, schedule: Q01DX009 (ip), vehicle: saline) 87 % of control; (dose: 200.0 mg/kg/injection, schedule: Q04DX003 (ip), vehicle: saline) 112 % of control; (dose: 400.0 mg/kg/injection, schedule: Q01DX009 (ip), vehicle: saline) 95 % of control; (dose: 400.0 mg/kg/injection, schedule: Q04DX003 (ip), vehicle: saline) 96 % of control.
Consider `CCOC(=O)NCC(CCN(C)C)(c1cccc2ccccc12)C(C)CC` (stereo not given), for which the T/C (dose: 25.0 mg/kg/injection, schedule: Q01DX009 (ip), vehicle: Klucel (hydroxypropylcellulose) (HPC)) is 94 % of control; the T/C under setting [5] is 94 % of control; the T/C (dose: 50.0 mg/kg/injection, schedule: Q04DX003 (ip), vehicle: Klucel (hydroxypropylcellulose) (HPC)) is 105 % of control; the T/C under setting [6] was 103 % of control.
In the case of `CN1CCN(C(=O)c2ccc(Cl)c(Cl)c2)CC1`, the T/C runs as follows: (dose: 12.5 mg/kg/injection, schedule: Q01DX009 (ip), vehicle: saline with Tween-80) 117 % of control; (dose: 12.5 mg/kg/injection, schedule: Q04DX003 (ip), vehicle: saline) 102 % of control; (dose: 25.0 mg/kg/injection, schedule: Q01DX009 (ip), vehicle: saline with Tween-80) 114 % of control; under setting [2], 102 % of control; (dose: 50.0 mg/kg/injection, schedule: Q01DX009 (ip), vehicle: saline with Tween-80) 102 % of control and 115 % of control; under setting [4], 108 % of control. Moreover, the T/C (dose: 75.0 mg/kg/injection, schedule: Q01DX009 (ip), vehicle: saline with Tween-80) was 115 % of control and the T/C (dose: 100.0 mg/kg/injection, schedule: Q01DX009 (ip), vehicle: saline with Tween-80) is 95 % of control.
As for `CC(=O)O[C@]1(C(C)=O)CC[C@H]2[C@@H]3CCC4=CC(=O)[C@H](C)C[C@]4(C)[C@@]3(F)[C@@H](O)C[C@@]21C`, the T/C is 100 % of control (dose: 25.0 mg/kg/injection, schedule: Q01DX015 (sc), vehicle: steriod suspending solution); 104 % of control (dose: 50.0 mg/kg/injection, schedule: Q01DX015 (sc), vehicle: steriod suspending solution); 100 % of control (dose: 100.0 mg/kg/injection, schedule: Q01DX015 (sc), vehicle: steriod suspending solution); 104 % of control and 115 % of control (dose: 200.0 mg/kg/injection, schedule: Q01DX015 (sc), vehicle: steriod suspending solution); 109 % of control (dose: 400.0 mg/kg/injection, schedule: Q01DX015 (sc), vehicle: steriod suspending solution); 110 % of control (dose: 800.0 mg/kg/injection, schedule: Q01DX015 (sc), vehicle: steriod suspending solution).
As to `CCCCCCCCCCNc1ccc(NCCCCCCCCCC)cc1`, the T/C (dose: 100.0 mg/kg/injection, schedule: Q01DX009 (ip), vehicle: Klucel (hydroxypropylcellulose) (HPC)) is 108 % of control; the T/C under setting [6] is 95 % of control; the T/C (dose: 200.0 mg/kg/injection, schedule: Q01DX009 (ip), vehicle: Klucel (hydroxypropylcellulose) (HPC)) is 109 % of control; the T/C under setting [7] was 102 % of control; the T/C (dose: 400.0 mg/kg/injection, schedule: Q01DX009 (ip), vehicle: Klucel (hydroxypropylcellulose) (HPC)) was 90 % of control; the T/C under setting [8] is 105 % of control.
For the compound `O=S(=O)(c1ccccc1)C(I)I`, the T/C (dose: 10.0 mg/kg/injection, schedule: Q04DX002 (ip), vehicle: Klucel (hydroxypropylcellulose) (HPC)) is 96 % of control; the T/C (dose: 20.0 mg/kg/injection, schedule: Q04DX002 (ip), vehicle: Klucel (hydroxypropylcellulose) (HPC)) was 94 % of control; the T/C (dose: 40.0 mg/kg/injection, schedule: Q04DX002 (ip), vehicle: Klucel (hydroxypropylcellulose) (HPC)) was 100 % of control.
With `CC(=O)Nc1ccc(F)c(F)c1`, the T/C (dose: 100.0 mg/kg/injection, schedule: Q04DX002 (ip), vehicle: Klucel (hydroxypropylcellulose) (HPC)) is 98 % of control; the T/C (dose: 200.0 mg/kg/injection, schedule: Q04DX002 (ip), vehicle: Klucel (hydroxypropylcellulose) (HPC)) was 113 % of control; the T/C (dose: 400.0 mg/kg/injection, schedule: Q04DX002 (ip), vehicle: Klucel (hydroxypropylcellulose) (HPC)) is 121 % of control.
On to `CC(O)(c1ccc(Cl)cc1)C(c1ccccc1)c1ccccn1` (stereo not given), for which the T/C was 103 % of control (dose: 50.0 mg/kg/injection, schedule: Q01DX009 (ip), vehicle: water); 95 % of control (dose: 100.0 mg/kg/injection, schedule: Q01DX009 (ip), vehicle: water); 116 % of control (dose: 100.0 mg/kg/injection, schedule: Q04DX003 (ip), vehicle: water); 96 % of control (dose: 200.0 mg/kg/injection, schedule: Q01DX009 (ip), vehicle: water); 119 % of control (dose: 200.0 mg/kg/injection, schedule: Q04DX003 (ip), vehicle: water); 97 % of control (dose: 400.0 mg/kg/injection, schedule: Q01DX009 (ip), vehicle: water). Also, the T/C (dose: 400.0 mg/kg/injection, schedule: Q04DX003 (ip), vehicle: water) is 104 % of control.
For `Nc1ncnc2c1c1c(N)[nH]nc1n2C1OC(CO)C(O)C1O` (stereo not given), the T/C runs as follows: (dose: 12.5 mg/kg/injection, schedule: Q01DX009 (ip), vehicle: saline) 114 % of control; under setting [1], 121 % of control; under setting [3], 150 % of control; (dose: 100.0 mg/kg/injection, schedule: Q01DX001 (ip), vehicle: saline) 104 % of control; (dose: 200.0 mg/kg/injection, schedule: Q01DX001 (ip), vehicle: saline) 106 % of control; (dose: 400.0 mg/kg/injection, schedule: Q01DX001 (ip), vehicle: saline) 121 % of control.
As for `O=C(c1ccccc1)c1nc2ccccc2nc1-c1ccccc1`, the T/C runs as follows: under setting [6], 92 % of control; under setting [7], 92 % of control; under setting [8], 89 % of control.
As to `CCCCCCOC(=O)c1cccc2c1-c1ccccc1C2=O`, the T/C (dose: 100.0 mg/kg/injection, schedule: Q01DX001 (ip), vehicle: carboxymethylcellulose (CMC)) is 93 % of control; the T/C (dose: 200.0 mg/kg/injection, schedule: Q01DX001 (ip), vehicle: carboxymethylcellulose (CMC)) was 93 % of control; the T/C (dose: 400.0 mg/kg/injection, schedule: Q01DX001 (ip), vehicle: carboxymethylcellulose (CMC)) is 98 % of control.
For the compound `C#CC(OC(=O)NC)(c1ccccc1)c1ccc(OC)cc1` (stereo not given), the T/C is 112 % of control (dose: 6.25 mg/kg/injection, schedule: Q01DX009 (ip), vehicle: Klucel (hydroxypropylcellulose) (HPC)); 120 % of control (dose: 11.0 mg/kg/injection, schedule: Q01DX006 (ip), vehicle: Klucel (hydroxypropylcellulose) (HPC)); 114 % of control (dose: 12.5 mg/kg/injection, schedule: Q01DX009 (ip), vehicle: Klucel (hydroxypropylcellulose) (HPC)); 115 % of control (dose: 25.0 mg/kg/injection, schedule: Q01DX006 (ip), vehicle: Klucel (hydroxypropylcellulose) (HPC)); 109 % of control (dose: 37.0 mg/kg/injection, schedule: Q01DX006 (ip), vehicle: Klucel (hydroxypropylcellulose) (HPC)); 119 % of control under setting [5]. In addition, the T/C under setting [6] was 111 % of control.
